These results are taken from patent US20200383985A1, “Inhibitors of Protease Activated Receptor-2” (Endosome Therapeutics, Inc., priority 2017, published 2020).

The term EC50 denotes the concentration giving half of the maximal effect.

The subject of the test is cytosolic and nuclear ERK. Description: FRET assays of cytosolic and nuclear ERK in HEK293 cells. The class given is cell-based. Conditions: for trypsin activation of cytosolic and nuclear ERK: I-343 10 μM, SCH530348 100 nM, PS2 30 μM. The protocol: Trypsin-induced ERK signaling mediated by endosomal PAR2 signaling was investigated in HEK293 cells expressing Flag-PAR2-HA11 and FRET biosensors for cytosolic and nuclear ERK (CytoEKAR, NucEKAR), plasma membrane and cytosolic PKC (pmCKAR, CytoCKAR), and plasma membrane and cytosolic cAMP (pmEpac, CytoEpac). […] I-343 (10 μM) but not SCH530348 (100 nM) inhibited trypsin activation of cytosolic and nuclear ERK (FIG. 5G). PS2 and DynK44E inhibited trypsin-stimulated activation of cytosolic and nuclear ERK when compared to PS2 inact and DynWT controls (FIG. 5H, 5I, 17G-J). AG1478 (1 μM), an inhibitor of EGF receptor tyrosine kinase (Levitzki, A. & Gazit, A. Science 1995, 267(5205): 1782-1788), UBO-QIC (100 nM), which inhibits Gαq and certain Gβγ signals ([…]), and G66983 (1 μM), which inhibits all isoforms of PKC (Gschwendt, M, et al., FEBS Lett 1996, 392(2): 77-80), suppressed trypsin-stimulated activation of cytosolic ERK (FIGS. 5J and 17K).
HEK293 cells were cultured in DMEM supplemented with 10% (v/v) FBS (5% CO2, 37° C.). When necessary serum restriction was achieved by replacing culture medium with DMEM containing 0.5% FBS overnight. Cells were transiently transfected using polyethylenimine (PEI) (1:6 DNA:PEI).
HEK293 cells were transiently transfected in 10 cm dishes (˜50% confluency) with Flag-PAR2-HA (2.5 μg) and FRET biosensors CytoEKAR or NucEKAR (2.5 μg) (Jensen, D. D. et al., Sci Transl Med. 2017, 9(392), eaal3447; Thomsen, A. R. B., et al., Cell 2016, 166(4): 907-919). In experiments examining the role of dynamin, cells were transfected with FLAG-PAR2-HA (1.25 μg), FRET biosensor (1.25 μg) and either DynWT-HA, DynK44E-HA or pcDNA3.1 (2.5 μg). At 24 h after transfection, cells were seeded on ViewPlate-96 well plates (PerkinElmer). FRET was assessed 72 h post-transfection, following overnight serum restriction. Cells were equilibrated in HBSS-HEPES (30 min, 37° C.). FRET was measured using a PHERAstar FSX Microplate Reader (BMG LabTech). For CFP/YFP emission ratio analysis, cells were sequentially excited using a CFP filter (425/10 nm) with emission measured using YFP (550/50 nm) and CFP (490/20 nm) filters. FRET was measured before and after stimulation with trypsin (10 nM), NE (100 nM), CS (100 nM), phorbol 12,13-dibutyrate, PDBu (positive control, 1 μM), or vehicle. FRET ratios (donor/acceptor intensity for EKAR, or acceptor/donor intensity for CKAR and Epac) were calculated and corrected to baseline and vehicle treatments to determine ligand-induced FRET (ΔFRET). Treatment effects were determined by comparison of area under the curve values. Signalling inhibitors were dissolved in HBSS-HEPES. PS2 and PS2 inact were dissolved in HBSS-HEPES+1% DMSO. Cells were incubated with UBO-QIC (100 nM), AG1478 (1 μM), G66983 (1 μM), PS2 or PS2 inact (30 μM) or vehicle (30 min preincubation, inclusion throughout).

As to `Cc1nc(C(=O)N2CCN(C(=O)c3cn4nc(-c5ccc(F)cc5)cc(C(C)(C)C)c4n3)C(C)(C)C2)n[nH]1` [Compound I-343, (8-(tert-butyl)-6-(4-fluorophenyl)imidazo[1,2-b]pyridazin-2-yl)(2,2-dimethyl-4-(5-methyl-1H-1,2,4-triazole-3-carbonyl)piperazin-1-yl)methanone], the “trypsin activation of cytosolic and nuclear ERK” value was “inhibited”.

As to `O=C1NC(=NS(=O)(=O)c2cccc3ccccc23)S/C1=C\c1ccc(Br)cc1` [PS2], the “trypsin activation of cytosolic and nuclear ERK” value is on record as “inhibited”.

trypsin: the EC50 (HEK293 cells, read-out: EC50, activation of ERK in the cytosol and nucleus) came to 5 nM. Moreover, the “activation of ERK in the cytosol and nucleus” value (trypsin 10 nM, NE or CS 100 nM) was “stimulated a rapid and persistent activation”.
